From PMC7549094 (Journal of Medicinal Chemistry, 2020)

Assays:
Assay in all cases: receptor profile (Table S4)
hr Mot = hr Mot (Homo sapiens, UniProt O43193); format: binding
hr PPARg ag = target: T1, hr PPARg ag (Homo sapiens, UniProt P37231); format: biochemical
T1 sequence (P37231 1-505): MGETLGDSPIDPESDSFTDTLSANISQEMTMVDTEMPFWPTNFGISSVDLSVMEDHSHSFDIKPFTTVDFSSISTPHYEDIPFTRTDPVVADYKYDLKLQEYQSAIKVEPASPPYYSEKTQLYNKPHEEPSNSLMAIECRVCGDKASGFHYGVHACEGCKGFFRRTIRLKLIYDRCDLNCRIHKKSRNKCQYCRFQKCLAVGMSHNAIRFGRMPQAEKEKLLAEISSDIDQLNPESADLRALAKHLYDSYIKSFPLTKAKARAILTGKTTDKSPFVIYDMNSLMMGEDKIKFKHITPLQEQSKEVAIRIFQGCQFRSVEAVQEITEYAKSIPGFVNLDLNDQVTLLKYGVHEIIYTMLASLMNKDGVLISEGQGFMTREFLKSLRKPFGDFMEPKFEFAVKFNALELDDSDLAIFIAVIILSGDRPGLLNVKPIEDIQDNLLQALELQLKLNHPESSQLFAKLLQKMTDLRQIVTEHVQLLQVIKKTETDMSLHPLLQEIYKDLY

hr OpD = hr OpD (Homo sapiens, UniProt P41143); format: binding
hr OpD, sequence (P41143 whole entry): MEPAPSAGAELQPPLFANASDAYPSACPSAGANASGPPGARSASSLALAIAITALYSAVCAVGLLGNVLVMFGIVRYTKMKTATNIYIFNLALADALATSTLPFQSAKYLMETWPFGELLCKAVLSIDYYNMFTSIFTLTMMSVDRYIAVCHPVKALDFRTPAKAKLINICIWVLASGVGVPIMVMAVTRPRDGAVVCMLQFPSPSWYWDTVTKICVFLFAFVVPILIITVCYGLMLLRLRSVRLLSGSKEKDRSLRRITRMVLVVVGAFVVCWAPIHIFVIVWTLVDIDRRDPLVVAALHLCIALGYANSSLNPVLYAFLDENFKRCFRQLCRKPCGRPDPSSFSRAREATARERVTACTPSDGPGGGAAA

hr Mot, sequence (O43193 whole entry): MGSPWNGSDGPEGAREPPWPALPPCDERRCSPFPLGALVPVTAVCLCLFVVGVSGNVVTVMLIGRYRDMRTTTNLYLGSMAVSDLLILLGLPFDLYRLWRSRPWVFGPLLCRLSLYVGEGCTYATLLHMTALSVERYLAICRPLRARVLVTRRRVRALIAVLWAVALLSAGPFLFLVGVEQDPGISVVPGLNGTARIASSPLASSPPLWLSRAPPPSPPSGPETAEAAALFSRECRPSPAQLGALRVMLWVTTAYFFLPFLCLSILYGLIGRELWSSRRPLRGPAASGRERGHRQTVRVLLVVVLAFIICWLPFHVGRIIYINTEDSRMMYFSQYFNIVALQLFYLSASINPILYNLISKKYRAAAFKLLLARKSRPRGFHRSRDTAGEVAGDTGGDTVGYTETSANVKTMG

Structure (SMILES): Cc1nc(C)c(C(=O)Nc2ccc(F)c(-c3nc4ncc(-c5ncccc5C)cn4n3)c2)o1 [compound 1, N-(4-Fluoro-3-(6-(3-methylpyridin-2-yl)-[1,2,4]triazolo[1,5-a]pyrimidin-2-yl)phenyl)-2,4-dimethyloxazole-5-carboxamide]
- EC50/IC50 (hr Mot; hr Mot): > 30 µM
- inhibition at 10 µM (hr Mot; read-out: % inh/act @ 10 µM): -3%
- inhibition at 30 µM (hr Mot; read-out: % inh/act @ 30 µM): 3%
- EC50/IC50 (hr PPARg ag; hr PPARg ag): > 30 µM
- inhibition at 10 µM (hr PPARg ag; read-out: % inh/act @ 10 µM): 4%
- inhibition at 30 µM (hr PPARg ag; read-out: % inh/act @ 30 µM): 5%
- EC50/IC50 (hr OpD; hr OpD): > 30 µM
- inhibition at 10 µM (hr OpD; read-out: % inh/act @ 10 µM): 22%
- inhibition at 30 µM (hr OpD; read-out: % inh/act @ 30 µM): 33%
